In the NIST ThermoML archive (doi:10.1016/j.jct.2016.08.010):

Columns and labels:
[1] = excess molar enthalpy (molar enthalpy of mixing); xn = mol fraction of the nth substance listed; conditions: 298.15 K, 100 kPa, Liquid, Power-compensation calorimetry
[2] = xn = mol fraction of the nth substance listed; conditions: 100 kPa, Liquid; for speed of sound: Frequency=3 MHz, Sing-around technique in a fixed-path interferometer; for mass density: Vibrating tube method

CCCCn1cc[n+](C)c1C.F[B-](F)(F)F [1-butyl-2,3-dimethylimidazolium tetrafluoroborate] + CCCCn1cc[n+](C)c1.F[B-](F)(F)F
[1]
Conditions	excess molar enthalpy [kcal/mol]
x1 = 0.0861	0.00327
x1 = 0.1386	0.00523
x1 = 0.1972	0.00734
x1 = 0.2455	0.00889
x1 = 0.2945	0.0104
x1 = 0.3428	0.0114
x1 = 0.3917	0.0121
x1 = 0.4457	0.0125
x1 = 0.5019	0.0125
x1 = 0.5637	0.0117
x1 = 0.6097	0.0109
x1 = 0.6637	0.00963
x1 = 0.7076	0.00858
x1 = 0.7611	0.00691
x1 = 0.8042	0.00564
x1 = 0.8462	0.00437
x1 = 0.8827	0.00325
x1 = 0.9144	0.0023

[2]
Conditions	mass density, 293.15 K [kg/m3]	mass density, 298.15 K [kg/m3]	mass density, 303.15 K [kg/m3]	mass density, 308.15 K [kg/m3]	speed of sound, 293.15 K [m/s]	speed of sound, 298.15 K [m/s]	speed of sound, 303.15 K [m/s]	speed of sound, 308.15 K [m/s]
x1 = 0.0917	1198.6	1195.3	1192.4	1189.4	1587.2	1574.1	1562.2	1550
x1 = 0.1281	1197.1	1194	1191.4	1188.6	1590.7	1577.4	1565.4	1553.1
x1 = 0.1633	1195.8	1193	1190.4	1187.9	1594	1580.6	1568.4	1556
x1 = 0.2059	1194.4	1191.8	1189.5	1187.1	1597.8	1584.3	1572	1559.5
x1 = 0.2455	1193.3	1190.9	1188.6	1186.4	1601.3	1587.7	1575.3	1562.7
x1 = 0.2967	1192.2	1189.9	1187.8	1185.7	1605.7	1591.9	1579.5	1566.8
x1 = 0.3424	1191.3	1189.2	1187.1	1185.2	1609.5	1595.7	1583.1	1570.4
x1 = 0.3974	1190.6	1188.6	1186.6	1184.8	1613.9	1600.1	1587.4	1574.6
x1 = 0.4496	1190.2	1188.3	1186.3	1184.6	1618.1	1604.1	1591.5	1578.6
x1 = 0.4997	1190	1188.2	1186.2	1184.5	1622	1608	1595.2	1582.4
x1 = 0.5418	1190	1188.2	1186.2	1184.5	1625.2	1611.2	1598.4	1585.5
x1 = 0.5941	1190.1	1188.3	1186.4	1184.7	1629.1	1615.1	1602.2	1589.4
x1 = 0.6398	1190.3	1188.5	1186.7	1184.9	1632.5	1618.5	1605.6	1592.9
x1 = 0.6873	1190.6	1188.9	1187	1185.3	1636	1622	1609.1	1596.3
x1 = 0.7388	1191	1189.3	1187.4	1185.7	1639.9	1625.9	1612.9	1600.1
x1 = 0.7963	1191.6	1189.9	1187.9	1186.1	1644.1	1630.1	1617.1	1604.4
x1 = 0.8482	1192.1	1190.4	1188.4	1186.5	1648	1634	1621	1608.4
x1 = 0.8903	1192.6	1190.8	1188.7	1187	1651.2	1637.2	1624.2	1611.4
x1 = 1	1193.5	1191.8	1189.7	1187.9	1659.7	1645.7	1632.5	1619.8

CCCCn1cc[n+](C)c1C.F[B-](F)(F)F [1-butyl-2,3-dimethylimidazolium tetrafluoroborate] + CCn1cc[n+](C)c1.F[B-](F)(F)F
[1]
Conditions	excess molar enthalpy [kcal/mol]
x1 = 0.0907	-0.0636
x1 = 0.1357	-0.0796
x1 = 0.1849	-0.088
x1 = 0.2377	-0.0856
x1 = 0.2839	-0.0762
x1 = 0.3341	-0.0593
x1 = 0.3729	-0.0437
x1 = 0.4351	-0.0139
x1 = 0.4972	0.0184
x1 = 0.5483	0.0452
x1 = 0.5967	0.0684
x1 = 0.6417	0.0884
x1 = 0.6978	0.105
x1 = 0.7424	0.114
x1 = 0.7909	0.117
x1 = 0.8345	0.109
x1 = 0.8758	0.0958
x1 = 0.9035	0.0829

[2]
Conditions	mass density, 293.15 K [kg/m3]	mass density, 298.15 K [kg/m3]	mass density, 303.15 K [kg/m3]	mass density, 308.15 K [kg/m3]	speed of sound, 293.15 K [m/s]	speed of sound, 298.15 K [m/s]	speed of sound, 303.15 K [m/s]	speed of sound, 308.15 K [m/s]
x1 = 0.0952	1270.9	1267.3	1264.1	1260.5	1636.2	1624.1	1611.9	1600.4
x1 = 0.1386	1265.5	1262.1	1259	1255.6	1638.2	1626	1613.7	1602.1
x1 = 0.1754	1261.2	1257.9	1255	1251.7	1639.8	1627.4	1615.1	1603.4
x1 = 0.2361	1254.5	1251.5	1248.7	1245.7	1642.2	1629.6	1617.2	1605.3
x1 = 0.2819	1249.8	1247	1244.3	1241.4	1643.8	1631.1	1618.5	1606.6
x1 = 0.3347	1244.7	1242.1	1239.5	1236.7	1645.4	1632.5	1619.9	1607.9
x1 = 0.3722	1241.3	1238.8	1236.3	1233.6	1646.5	1633.5	1620.8	1608.7
x1 = 0.4192	1237.2	1234.9	1232.4	1229.9	1647.7	1634.6	1621.8	1609.7
x1 = 0.4451	1235.1	1232.8	1230.4	1227.9	1648.3	1635.1	1622.4	1610.2
x1 = 0.4807	1232.2	1230	1227.7	1225.2	1649.1	1635.8	1623	1610.8
x1 = 0.5327	1228.2	1226.1	1223.8	1221.4	1650.2	1636.8	1623.9	1611.7
x1 = 0.5785	1224.8	1222.8	1220.5	1218.2	1651	1637.6	1624.7	1612.4
x1 = 0.6364	1220.6	1218.7	1216.4	1214.2	1652.1	1638.5	1625.6	1613.2
x1 = 0.6729	1218	1216.1	1213.9	1211.7	1652.7	1639.1	1626.1	1613.7
x1 = 0.7342	1213.7	1211.8	1209.7	1207.6	1653.8	1640.1	1627.1	1614.6
x1 = 0.7738	1210.9	1209	1206.9	1204.9	1654.5	1640.8	1627.7	1615.2
x1 = 0.8254	1207.2	1205.4	1203.2	1201.3	1655.5	1641.7	1628.6	1616.1
x1 = 0.8739	1203.6	1201.8	1199.7	1197.8	1656.5	1642.7	1629.5	1616.9
x1 = 1	1193.5	1191.8	1189.7	1187.9	1659.7	1645.7	1632.5	1619.8
